# Measurements: US20180228826A1, “FIXED-DOSE COMBINATIONS OF ANTIVIRAL COMPOUNDS” (priority 2015, published 2018)
# Where two headings read alike, the source gives them in different places.
# What was measured:
# [1] = human clinical trial, pharmacokinetics of Tablet Formulation 6 and Tablet Formulation 7, fasted and fed; conditions: in vivo, GM; for AUC(0-t): read-out: AUC0-24 hr
# [2] = solubility in simulated fasted-state intestinal fluid; format: physicochemical; conditions: fassif
# Procedure: (§1) Even in its amorphous state, the apparent solubility of neat amorphous Compound […] in simulated fasted-state intestinal fluid is 50 μg/mL after two hours of equilibration. In order to enable absorption of Compound III, solid dispersion formulations of Compound III were formulated at a drug loading less than or equal to 40% in combination with absorption-enhancing polymers and surfactants as described in U.S. Provisional Patent Application No. 61/936,019, filed Feb. 5, 2014; PCT International Patent Application Nos. PCT/US2015/014195 and PCT/US2015/014201, filed Feb. 3, 2015.
# log D of Compound III = format: physicochemical; conditions: pH=7
# Procedure: as §1
# [3] = oral, administered as Tablet Formulation 6, single dose of two tablets, Fasted
# [4] = oral, administered as Tablet Formulation 6, single dose of two tablets, Fed (High-Fat Meal)
# [5] = oral, administered as Tablet Formulation 7, single dose of two tablets, Fasted
# [6] = oral, administered as Tablet Formulation 7, single dose of two tablets, Fed (High-Fat Meal)
# [7] = administered as Tablet Formulation 6, single dose of two tablets, Fasted
# [8] = administered as Tablet Formulation 6, single dose of two tablets, Fed (High-Fat Meal)
# [9] = administered as Tablet Formulation 7, single dose of two tablets, Fasted
# [10] = administered as Tablet Formulation 7, single dose of two tablets, Fed (High-Fat Meal)
SMILES,"AUC(0-inf) [1, 3]","Cmax [1, 3]","AUC(0-t) [1, 3]","AUC(0-inf) [1, 4]","Cmax [1, 4]","AUC(0-t) [1, 4]","AUC(0-inf) [1, 5]","Cmax [1, 5]","AUC(0-t) [1, 5]","AUC(0-inf) [1, 6]","Cmax [1, 6]","AUC(0-t) [1, 6]",also measured
"COC(=O)N[C@H](C(=O)N1CCC[C@H]1c1ncc(-c2cc(F)c3c(c2)O[C@@H](c2cnc(C4CC4)s2)n2c-3cc3cc(-c4cnc([C@@H]5CCCN5C(=O)[C@@H](NC(=O)OC)C(C)C)[nH]4)ccc32)[nH]1)C(C)C [Compound II, dimethyl ((2S,2′S)-((2S,2′S)-2,2′-(5,5′-((S)-6-(2-cyclopropylthiazol-5-yl)-1-fluoro-6H-benzo[5,6][1,3]oxazino[3,4-a]indole-3,10-diyl)bis(1H-imidazole-5,2-diyl))bis(pyrrolidine-2,1-diyl))bis(3-methyl-1-oxobutane-2,1-diyl))dicarbamate]",0.942 µM·h,57 nM,0.572 µM·h,1.11 µM·h,68.1 nM,0.658 µM·h,1.31 µM·h,77.2 nM,0.783 µM·h,1.2 µM·h,78.7 nM,0.716 µM·h,
"CC(C)OC(=O)[C@@H](C)NP(=O)(OC[C@H]1O[C@@H](n2ccc(=O)[nH]c2=O)[C@](C)(Cl)[C@@H]1O)Oc1ccccc1 (stereo partly drawn) [Compound I, (2R)-isopropyl 2-(((((2R,3R,4R,5R)-4-chloro-5-(2,4-dioxo-3,4-dihydropyrimidin-1(2H)-yl)-3-hydroxy-4-methyltetrahydrofuran-2-yl)methoxy)(phenoxy)phosphoryl)amino)propanoate]",,,,,,,,,,,,,"AUC(0-inf) [1, 7]: 2.73 µM·h; Cmax [1, 7]: 900 nM; AUC(0-t) [1, 7]: 2.63 µM·h; AUC(0-inf) [1, 8]: 3.91 µM·h; Cmax [1, 8]: 1420 nM; AUC(0-t) [1, 8]: 3.85 µM·h; AUC(0-inf) [1, 9]: 3.01 µM·h; Cmax [1, 9]: 897 nM; AUC(0-t) [1, 9]: 2.91 µM·h; AUC(0-inf) [1, 10]: 4.08 µM·h; Cmax [1, 10]: 1740 nM; AUC(0-t) [1, 10]: 4.36 µM·h; solubility at 2 h ([2]; thermodynamic from solid, after two hours of equilibration, read-out: apparent solubility of neat amorphous compound): 50 µg/mL"
"C=C[C@@H]1C[C@]1(NC(=O)[C@@H]1C[C@@H]2CN1C(=O)[C@H](C(C)(C)C)NC(=O)O[C@@H]1C[C@H]1CCCCCc1nc3ccc(OC)cc3nc1O2)C(=O)NS(=O)(=O)C1CC1 [Compound III, (1aR,5S,8S,10R,22aR)—N-[(1R,2S)-1-[(cyclopropylsulfonamido)carbonyl]-2-ethenylcyclopropyl]-14-methoxy-5-(2-methylpropan-2-yl)-3,6-dioxo-1,1a,3,4,5,6,9,10,18,19,20,21,22,22a-tetradecahydro-8H-7,10-methanocyclopropa[18,19][1,10,3,6]dioxadiazacyclononadecino[11,12-b]quinoxaline-8-carboxamide hydrate]",0.508 µM·h,25.6 nM,0.218 µM·h,0.628 µM·h,44.3 nM,0.33 µM·h,0.598 µM·h,31.2 nM,0.285 µM·h,0.733 µM·h,61.2 nM,0.38 µM·h,solubility [2]: < 7 µg/mL; logD (log D of Compound III): ~3
